Measured values taken from ChEMBL document CHEMBL6096690, “Synthesis and Biological Evaluation of Peripheral HTR2A Antagonists for Colorectal Cancer” (J Med Chem, 2025).
Calls of active or inactive are those of the source. No cut-off for these calls is given here.

Experiments:
CCD-18Co = test: Cytotoxicity against human CCD-18Co cells assessed as inhibition of cell proliferation at 1.5 to 12.5 uM by CCK-8 assay; assay type: toxicity, cell-based; details: dose lower 1.5 µM, time lower 24 hrs, dose upper 12.5 µM, time upper 48 hrs
[1] = Toxicity in male athymic nude BALB/c mouse xenografted with human HCT-116 cells assessed as change in body weight at 1 to 10 mg/kg, ip administered once daily and measured after 19 days; assay type: organism-based; details: in vivo, 456 h, dose 1-10 mg/kg, time 19 day
SW-620 [2] = test: Induction of cell cycle arrest in human SW620 cells assessed as increase in sub-G1 phase cells incubated for 24 hrs by PI/RNase staining based flow cytometric analysis; assay type: functional; details: dose 5-10 µM
HCT-116 [3] = test: Antitumor activity against human HCT-116 cells xenografted in male athymic nude BALB/c mouse assessed as increase in cleaved caspase 3 expression at 10 mg/kg, ip measured after 19 days by Immunohistochemical analysis; assay type: functional, organism-based; details: time 19.0 day
HCT-116 [4] = test: Induction of apoptosis in human HCT-116 cells assessed as increase in cleaved PARP expression incubated for 24 hrs by Western blotting analysis; assay type: functional, cell-based; details: dose 5-10 µM
HCT-116 [5] = test: Antiproliferative activity against human HCT-116 cells assessed as inhibition of cell proliferation incubated for 24 to 48 hrs by CCK-8 assay; assay type: functional, cell-based; details: dose 1.5-12.5 µM, time 24-48 hrs
CYP3A4 = CYP3A4 (Homo sapiens, UniProt P08684); test: Inhibition of CYP3A4 (unknown origin) at 10 uM relative to control; assay type: ADME
CYP3A4, sequence (P08684 whole entry): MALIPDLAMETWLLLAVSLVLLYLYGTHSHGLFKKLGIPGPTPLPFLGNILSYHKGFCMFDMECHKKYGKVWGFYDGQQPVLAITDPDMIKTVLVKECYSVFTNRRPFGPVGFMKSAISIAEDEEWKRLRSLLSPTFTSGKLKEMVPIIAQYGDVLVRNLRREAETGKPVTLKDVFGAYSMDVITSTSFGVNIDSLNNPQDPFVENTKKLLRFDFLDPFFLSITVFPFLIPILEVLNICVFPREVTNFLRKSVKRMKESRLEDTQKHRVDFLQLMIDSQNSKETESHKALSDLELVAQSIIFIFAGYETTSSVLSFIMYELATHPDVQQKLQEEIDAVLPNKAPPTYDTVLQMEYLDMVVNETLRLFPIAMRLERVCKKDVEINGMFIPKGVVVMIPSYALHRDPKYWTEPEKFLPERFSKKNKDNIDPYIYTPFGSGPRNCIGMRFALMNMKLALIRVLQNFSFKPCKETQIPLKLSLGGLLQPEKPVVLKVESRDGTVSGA

[6] = Drug concentration in male ICR mouse brain at 10 mg/kg, ip measured after 3 hr; assay type: ADME, organism-based; details: read-out: Ct
[7] = target: T1, 5-hydroxytryptamine receptor 2C (Homo sapiens) (UniProt P28335); test: Inhibition of 5HTR2C (unknown origin) at 1 uM relative to control
T1 sequence (whole entry): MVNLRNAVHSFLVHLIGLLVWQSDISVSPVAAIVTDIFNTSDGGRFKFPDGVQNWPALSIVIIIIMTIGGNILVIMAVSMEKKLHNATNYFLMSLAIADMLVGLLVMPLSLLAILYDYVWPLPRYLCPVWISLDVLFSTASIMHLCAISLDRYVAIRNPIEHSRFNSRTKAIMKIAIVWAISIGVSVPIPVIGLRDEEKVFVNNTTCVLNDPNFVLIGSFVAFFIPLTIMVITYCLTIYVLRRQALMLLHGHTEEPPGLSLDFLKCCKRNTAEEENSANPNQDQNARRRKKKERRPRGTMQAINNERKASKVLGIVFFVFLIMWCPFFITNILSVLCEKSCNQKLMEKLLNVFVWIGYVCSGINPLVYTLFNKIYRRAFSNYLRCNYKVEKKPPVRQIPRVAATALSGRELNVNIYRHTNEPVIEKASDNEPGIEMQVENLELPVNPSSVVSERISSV

[8] = Volume of distribution at steady state in male mouse at 2 mg/kg, iv; assay type: ADME, organism-based; details: in vivo, read-out: Vdss
[9] = Clearance in male mouse at 2 mg/kg, iv; assay type: ADME, organism-based; details: in vivo
HCT-116 [10] = test: Induction of cell cycle arrest at sub-G1 phase in human HCT-116 cells assessed as increase in p21 protein expression at 5 to 10 uM incubated for 24 hrs by Western blotting analysis; assay type: functional, cell-based; details: dose 5-10 µM
SW-620 [11] = test: Antiproliferative activity against human SW620 cells assessed as inhibition of cell proliferation at 1.5 to 12.5 uM by CCK-8 assay; assay type: functional, cell-based; details: dose 1.5-12.5 µM, time 24-48 hrs
[12] = target: 5-hydroxytryptamine receptor 6 (Homo sapiens) (UniProt P50406); test: Inhibition of 5HTR6 (unknown origin) at 1 uM relative to control
5-hydroxytryptamine receptor 6 (Homo sapiens), sequence (P50406 whole entry): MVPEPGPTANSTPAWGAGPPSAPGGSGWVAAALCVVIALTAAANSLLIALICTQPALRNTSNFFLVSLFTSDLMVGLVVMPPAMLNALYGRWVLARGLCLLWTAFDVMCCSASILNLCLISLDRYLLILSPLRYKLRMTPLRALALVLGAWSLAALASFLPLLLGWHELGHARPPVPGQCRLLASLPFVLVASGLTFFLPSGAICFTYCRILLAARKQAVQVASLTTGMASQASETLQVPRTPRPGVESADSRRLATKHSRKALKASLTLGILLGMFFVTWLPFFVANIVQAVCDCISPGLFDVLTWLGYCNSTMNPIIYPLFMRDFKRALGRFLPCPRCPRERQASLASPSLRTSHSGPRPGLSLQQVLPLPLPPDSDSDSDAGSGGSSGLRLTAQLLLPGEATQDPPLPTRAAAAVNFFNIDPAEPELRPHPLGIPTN

[13] = Half life in male mouse at 2 mg/kg, iv; assay type: ADME, organism-based; details: in vivo
SW-620 [14] = test: Induction of apoptosis in human SW620 cells assessed as increase in cleaved caspase 3 expression incubated for 24 hrs by Western blotting analysis; assay type: functional, cell-based; details: dose 5-10 µM
HCT-116 [15] = test: Antitumor activity against human HCT-116 cells xenografted in male athymic nude BALB/c mouse assessed as tumor growth inhibition at 10 mg/kg, ip measured after 19 days relative to control; assay type: functional; details: HCT-116, 456 h, time 19 day, read-out: TGI
[16] = target: 5-hydroxytryptamine receptor 2B (Homo sapiens, UniProt P41595); test: Inhibition of 5HTR2B (unknown origin)
5-hydroxytryptamine receptor 2B, sequence (P41595 whole entry): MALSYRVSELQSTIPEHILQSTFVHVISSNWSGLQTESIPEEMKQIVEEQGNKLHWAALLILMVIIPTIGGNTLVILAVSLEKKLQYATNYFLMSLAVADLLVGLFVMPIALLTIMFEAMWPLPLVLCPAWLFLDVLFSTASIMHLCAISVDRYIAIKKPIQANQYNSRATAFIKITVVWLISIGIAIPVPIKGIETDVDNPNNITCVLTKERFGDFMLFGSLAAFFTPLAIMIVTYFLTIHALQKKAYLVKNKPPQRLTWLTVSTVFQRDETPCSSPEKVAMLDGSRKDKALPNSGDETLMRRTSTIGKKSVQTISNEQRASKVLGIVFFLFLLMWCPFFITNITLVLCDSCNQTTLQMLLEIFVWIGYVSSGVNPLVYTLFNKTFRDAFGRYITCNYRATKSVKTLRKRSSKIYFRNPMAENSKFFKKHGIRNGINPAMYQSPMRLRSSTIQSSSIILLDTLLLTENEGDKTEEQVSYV

RKO = test: Antiproliferative activity against human RKO cells assessed as inhibition of cell proliferation at 1.5 to 12.5 uM by CCK-8 assay; assay type: functional, cell-based; details: dose 1.5-12.5 µM, time 24-48 hrs
[17] = AUCt in male mouse at 2 mg/kg, iv; assay type: ADME, organism-based; details: in vivo
[18] = Drug concentration in male ICR mouse plasma at 10 mg/kg, ip measured after 3 hr; assay type: ADME, organism-based
SW-620 [19] = test: Induction of cell cycle arrest at sub-G1 phase in human SW620 cells assessed as increase in p21 protein expression at 5 to 10 uM incubated for 24 hrs by Western blotting analysis; assay type: functional, cell-based; details: dose 5-10 µM
HCT-116 [20] = test: Antiproliferative activity against human HCT-116 cells assessed as inhibition of cell proliferation at 1.5 to 12.5 uM by CCK-8 assay; assay type: functional, cell-based; details: dose 1.5-12.5 µM, time […]
[21] = target: 5-hydroxytryptamine receptor 2A (Homo sapiens, UniProt P28223); test: Antagonist activity at 5HTR2A (unknown origin) assessed as inhibition of 5-HTR2A
5-hydroxytryptamine receptor 2A, sequence (P28223 whole entry): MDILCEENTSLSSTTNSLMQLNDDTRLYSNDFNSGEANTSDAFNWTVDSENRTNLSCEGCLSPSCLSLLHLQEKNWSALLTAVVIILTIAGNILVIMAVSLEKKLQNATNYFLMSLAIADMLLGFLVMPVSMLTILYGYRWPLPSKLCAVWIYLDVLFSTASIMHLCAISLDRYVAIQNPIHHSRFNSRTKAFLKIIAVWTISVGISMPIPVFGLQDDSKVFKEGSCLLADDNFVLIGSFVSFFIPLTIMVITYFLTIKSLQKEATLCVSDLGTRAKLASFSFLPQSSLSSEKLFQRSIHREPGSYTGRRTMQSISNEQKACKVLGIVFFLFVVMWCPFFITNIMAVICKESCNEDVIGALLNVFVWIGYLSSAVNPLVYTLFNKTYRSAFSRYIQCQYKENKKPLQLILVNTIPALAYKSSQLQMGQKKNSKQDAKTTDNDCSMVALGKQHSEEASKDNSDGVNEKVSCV

HCT-116 [22] = test: Induction of cell cycle arrest in human HCT-116 cells assessed as increase in sub-G1 phase cells incubated for 24 hrs by PI/RNase staining based flow cytometric analysis; assay type: functional; details: dose 5-10 µM
HCT-116 [23] = test: Induction of apoptosis in human HCT-116 cells assessed as increase in apoptotic cells at 5 to 10 uM incubated for 24 hrs by Annexin V/propidium iodide staining based FACS assay; assay type: functional, cell-based; details: dose 5-10 µM
HCT-116 [24] = test: Antitumor activity against human HCT-116 cells expressing firefly luciferase xenografted in male athymic nude BALB/c mouse assessed as tumor growth inhibition at 50 mg/kg, ip administered once daily by bioluminescence imaging analysis relative to control; assay type: functional; details: read-out: TGI
[25] = AUCinfinity in male mouse at 2 mg/kg, iv; assay type: ADME, organism-based; details: in vivo
SW-620 [26] = test: Antitumor activity against human SW620 cells xenografted in male athymic nude BALB/c mouse assessed as tumor growth inhibition at 10 mg/kg, ip administered once daily relative to control; assay type: functional; details: read-out: TGI

- inhibition at 10 µM (CYP3A4): 9.6%
- concentration at 3 h [6]: < 0.5 ng/g
- inhibition [7]: 44%
- Vd [8]: 83.9 L/kg
- clearance [9]: 67.7 mL/min/kg
- inhibition [12]: -5%
- half-life [13]: 13.9 h
- IC50 [16]: 621 nM
- AUC(0-t) [17]: 300 ng·h/mL
- concentration at 3 h [18]: 271 ng/mL
- IC50 [21]: 42.8 nM
- AUC(0-inf) [25]: 500 ng·h/mL
Structure (SMILES): Cl.Cl.O=C(NCc1ccc(OCC(O)CN2CCN(c3noc4cc(F)ccc34)CC2)cc1)N(Cc1ccc(F)cc1)C1CCNCC1 (centres undefined)
- Activity (CCD-18Co): Time-dependent-effect
- Activity [1]: Non-toxic
- Activity (SW-620 [2]): Dose-dependent-effect
- Activity (HCT-116 [3]): Active
- Activity (HCT-116 [4]): Dose-dependent-effect
- Activity (HCT-116 [5]): Dose-dependent-effect
- Activity (HCT-116 [10]): Active
- Activity (SW-620 [11]): Time-dependent-effect
- Activity (SW-620 [14]): Dose-dependent-effect
- inhibition in vivo at 10 mg/kg (HCT-116 [15]): 53.3%
- Activity (RKO): Time-dependent-effect
- Activity (SW-620 [19]): Active
- Activity (HCT-116 [20]): Time-dependent-effect
- Activity (HCT-116 [22]): Dose-dependent-effect
- Activity (HCT-116 [23]): Active
- inhibition in vivo at 50 mg/kg (HCT-116 [24]): 76.5%
- inhibition in vivo at 10 mg/kg (SW-620 [26]): 30.8%
